Results from patent publication EP4786459A1, “BENZENE RING-CONTAINING COMPOUND HAVING ANALGESIC EFFECT, PREPARATION METHOD THEREFOR, AND USE THEREOF” (West China Hospital, Sichuan University, priority 2023, dated 2025).

Tests used:
rats = assay: Loss of tail withdrawal reflex (LOTWR) in rats, single intravenous injection, dose escalation: potent analgesic effect and severe adverse reactions; type: in vivo, SD rats; details: Rattus norvegicus, single intravenous injection (tail vein), LOTWR lasting for 30 seconds as criterion, class symbol, read-out: The minimum effective dose
Protocol: (§1) Using the loss of tail withdrawal reflex (LOTWR) in rats as an indicator, the potent analgesic effect of the compounds according to the present invention was evaluated.
(§2) 1.1 Experimental animals: Adult male SD rats weighing between 220-300 g were selected for the experiment. The rats were housed in sawdust-bedded cages with a temperature of 25±1°C, humidity ranging from 40% to 60%, and a 12-hour light/12-hour dark cycle. Each cage contained no more than 5 rats, with free access to water and food.
(§3) • (1) The compound of the present invention, along with the positive control drug remifentanil and the negative control (vehicle), were administered in fixed volumes. A dose escalation approach was employed to determine the minimum effective dose at which the compound of the present invention produces potent analgesic effects, as well as the minimum dose at which severe adverse reactions first appear. • (2) LOTWR lasting for 30 seconds was used as the criterion for generating potent analgesic effects. During the experiment, drugs were administered via the tail vein of rats, with a dosage volume of 0.6 mL per rat and a dosage rate of 0.02 mL/s. Subsequently, an alligator clip was applied at a distance of 1 cm from the base of the rat's tail, clamping once longitudinally and once transversely before being left in place. Meanwhile, the distal end of the alligator clip was continuously oscillated (30 times/min) to continuously generate stimulation. […] When all results were "no LOTWR" after 10 minutes of testing (5 trials), the test was stopped and recorded as "ineffective." • (3) All compounds would undergo a dose escalation for efficacy evaluation, starting from 1 mg/kg (due to the high potency of remifentanil, the lowest dose was set at 1 µg/kg), followed by 5 mg/kg, 10 mg/kg, 20 mg/kg, and so on (increasing by 20 mg/kg increments after 20 mg/kg). The dose escalation would be stopped when rats show signs of death, and the lowest effective dose and the lowest dose at which severe adverse reactions occur would be recorded throughout the process. In this study, severe adverse reactions are defined as apnea, generalized tonic rigidity, convulsions, opisthotonus, seizures, etc.
(§4) 1.3 Evaluation indicators: the minimum effective dose; the minimum dose resulting in serious adverse reactions; the safety therapeutic index = "the minimum dose resulting in serious adverse reactions" / "the minimum effective dose".

[1] = as above; type: in vivo, SD rats; details: rat, in vivo, single intravenous injection, minimum dose resulting in serious adverse reactions / minimum effective dose, class symbol, read-out: The safety therapeutic index
Protocol: as §1, §2, §3, §4

Row | SMILES | minimal effective dose (rats) [mg/kg] | selectivity ratio [1]
1 | Cc1cc(C)cc(CNC(=O)NCc2ccc(C)cc2N(C)C)c1 [Example 63] | ≤ 10 | ≤ 2
2 | Cc1ccc(CNC(=O)NCc2cnc[nH]2)c(N(C)C)c1 [Example 64] | ≤ 10 | > 4
3 | Cc1ccc(CNC(=O)NCc2ccnn2C)c(N(C)C)c1 [Example 65] | ≤ 10 | > 4
4 | Cc1ccc(CNC(=S)NCc2ccns2)c(N(C)C)c1 [Example 66] | ≤ 10 | 2 to 4
5 | Cc1ccc(CNC(=S)NCc2cccs2)c(N(C)C)c1 [Example 67] | ≤ 10 | > 4
6 | Cc1ccc(CNC(=S)NCc2ccns2)cc1N(C)C [Example 68] | ≤ 10 | 2 to 4
7 | Cc1ccc(CNC(=S)NCc2ccco2)c(N(C)C)c1 [Example 69] | ≤ 10 | 2 to 4
8 | Cc1ccc(CNC(=S)NCc2ccoc2)c(N(C)C)c1 [Example 70] | 10 to 20 | ≤ 2
9 | Cc1ccc(CNC(=S)NCc2ccco2)cc1N(C)C [Example 71] | ≤ 10 | ≤ 2
10 | Cc1ccc(CNC(=S)NCc2ccoc2)cc1N(C)C [Example 72] | ≤ 10 | 2 to 4
11 | Cc1ccc(CNC(=S)NCc2ncc[nH]2)c(N(C)C)c1 [Example 74] | > 30 | ≤ 2
12 | Cc1ccc(CNC(=N)NCc2ncc[nH]2)c(N(C)C)c1 [Example 75] | ≤ 10 | 2 to 4
13 | CCCc1ccc(CNC(=S)NCc2cccs2)c(N(C)C)c1 [Example 76] | ≤ 10 | > 4
14 | CCCc1ccc(CNC(=S)NCc2cccs2)cc1N(C)C [Example 77] | ≤ 10 | 2 to 4
15 | CN(C)c1ccc(CNC(=O)NCc2cccs2)cc1 [Example 78] | 10 to 20 | ≤ 2
16 | Cc1ccc(NC(=S)Nc2ccsc2)cc1N(C)C [Example 79] | 20 to 30 | ≤ 2
17 | Cc1ccc(CCNC(=S)Nc2cccs2)c(N(C)C)c1 [Example 81] | ≤ 10 | 2 to 4
18 | [2H]C([2H])([2H])N(c1cc(C)ccc1CNC(=S)NCc1cccs1)C([2H])([2H])[2H] [Example 82] | ≤ 10 | 2 to 4
19 | Cc1ccc(NC(=S)Nc2cccs2)c(N(C)C)c1 [Example 83] | ≤ 10 | > 4
20 | Cc1ccc(CNC(=S)NCc2ccccc2)c(N(C)C)c1 [Example 85] | ≤ 10 | ≤ 2
21 | Cc1ccc(CNC(=S)NCc2ccccc2)cc1N(C)C [Example 86] | ≤ 10 | 2 to 4
22 | Cc1ccc(CNC(=S)NCc2ccnn2C)c(N(C)C)c1 [Example 87] | ≤ 10 | > 4
23 | CN(C)c1cc(C(F)(F)F)ccc1CNC(=S)NCc1cccs1 [Example 88] | ≤ 10 | > 4
24 | Cc1ccc(CNC(=S)NCc2cccs2)c(N2CCOCC2)c1 [Example 89] | ≤ 10 | 2 to 4
25 | Cc1ccc(CNC(=N)NCc2ccns2)c(N(C)C)c1 [Example 90] | ≤ 10 | 2 to 4
26 | Cc1ccc(CNC(=N)NCc2ccno2)c(N(C)C)c1 [Example 92] | ≤ 10 | 2 to 4
27 | Cc1ccc(CNC(=S)NCc2cc3ccccc3s2)c(N(C)C)c1 [Example 93] | ≤ 10 | ≤ 2
28 | Cc1ccc(CNC(=S)NCc2ccc3ccsc3c2)c(N(C)C)c1 [Example 94] | ≤ 10 | > 4
29 | CN(C)c1cccc(NC(=N)Nc2cccs2)c1 [Example 95] | ≤ 10 | ≤ 2
30 | CN(C)c1cccc(NC(=N)Nc2ccsc2)c1 [Example 96] | ≤ 10 | ≤ 2
